Reference: US11590116B2 (THERAVANCE BIOPHARMA R&D IP, LLC, priority 2019, dated 2023)

What was measured:
[1] = molecular target: T1, recombinant human ALK5 (TGF-βR1) protein (Homo sapiens, UniProt P36897); experiment: Biochemical ALK5 (TGF-βR1) assay to measure pKi (LANCE Ultra ULight kinase assay); conditions: apparent pKi from pIC50 by Cheng-Prusoff, read-out: ALK5 pKi (converted)
T1 construct: purchased Life Technologies PR9075A
T1 sequence (P36897 34-503): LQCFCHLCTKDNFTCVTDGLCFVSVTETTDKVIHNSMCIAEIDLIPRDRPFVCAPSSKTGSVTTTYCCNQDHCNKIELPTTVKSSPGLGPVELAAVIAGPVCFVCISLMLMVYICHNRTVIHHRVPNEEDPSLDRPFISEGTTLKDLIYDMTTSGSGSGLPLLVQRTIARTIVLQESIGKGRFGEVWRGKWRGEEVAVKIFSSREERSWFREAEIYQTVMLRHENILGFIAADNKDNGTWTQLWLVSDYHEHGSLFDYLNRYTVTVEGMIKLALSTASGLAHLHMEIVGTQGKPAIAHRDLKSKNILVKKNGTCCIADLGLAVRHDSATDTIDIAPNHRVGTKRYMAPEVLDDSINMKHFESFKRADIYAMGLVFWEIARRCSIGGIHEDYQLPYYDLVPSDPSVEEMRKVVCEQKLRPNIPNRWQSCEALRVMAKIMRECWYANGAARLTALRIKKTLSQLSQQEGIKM
Outline: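 Compounds (10 μM to 25 pM) preincubated 60 minutes at room temperature with enzyme, then reaction run 60 minutes at 37° C with ATP added as 125 μM (5× final). Stopped with EDTA plus Eu-anti-phospho-Topoisomerase 2-alpha (Thr1342) antibody, TR-FRET read at 665 nm; pIC50 converted to pKi via Cheng-Prusoff.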

[2] = system: TGF-β-stimulated SMAD3 phosphorylation in BEAS-2B cells; experiment: Cellular ALK5 potency assay, inhibition of TGF-β stimulated pSMAD3 formation in BEAS-2B cells; format: cell-based; conditions: Homo sapiens; inhibition of TGF-β stimulated pSMAD3 formation, BEAS-2B cells; read-out: BEAS2B pIC50 (converted)
Outline: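 BEAS-2B human lung epithelial cells pre-treated 1 h at 37° C with compound in HBSS/25 mM HEPES/1% BSA, then stimulated 30 min with 10 ng/mL TGF-β (final). Lysates assayed for pSMAD3 by AlphaLISA; pIC50 from dose-dependent change versus stimulated untreated cells.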

SMILES	Ki [1] [nM]	IC50 [2] [nM]
Cc1cccc(-c2[nH]cnc2-c2ccc3ncc(-c4cccc(C(=O)O[C@@H]5CCNC5)n4)cc3c2)n1 [Compound 1126, [(3R)-pyrrolidin-3-yl] 6-[6-[5-(6-methyl-2-pyridyl)-1H-imidazol-4-yl]-3-quinolyl]pyridine-2-carboxylate]	< 0.0316	25.1 to 158
Cc1cccc(-c2[nH]cnc2-c2ccc3ncc(-c4cccc(C(=O)OC5CNC5)n4)cc3c2)n1 [Compound 1128, azetidin-3-yl 6-[6-[5-(6-methyl-2-pyridyl)-1H-imidazol-4-yl]-3-quinolyl]pyridine-2-carboxylate]	0.0398 to 0.316	25.1 to 158
CN[C@H]1CC[C@H](OC(=O)c2cnc3ccc(-c4nc[nH]c4-c4cccc(C)n4)cc3c2)CC1 [Compound 1129, [4-(methylamino)cyclohexyl] 6-[5-(6-methyl-2-pyridyl)-1H-imidazol-4-yl]quinoline-3-carboxylate]	0.0398 to 0.316	25.1 to 158
Cc1cccc(-c2[nH]ncc2-c2ccc3nccc(C(=O)OC[C@H]4CC[C@@H](N)CC4)c3c2)n1 [Compound 1130, (4-aminocyclohexyl)methyl 6-[5-(6-methyl-2-pyridyl)-1H-pyrazol-4-yl]quinoline-4-carboxylate]	0.398 to 3.16	25.1 to 158
Cc1cccc(-c2[nH]ncc2-c2ccc3nccc(C(=O)OCCC4CNC4)c3c2)n1 [Compound 1136, 2-(azetidin-3-yl)ethyl 6-[5-(6-methyl-2-pyridyl)-1H-pyrazol-4-yl]quinoline-4-carboxylate]	0.398 to 3.16	200 to 1260
Cc1cccc(-c2[nH]cnc2-c2ccc3ncc(-c4cc(C(=O)O)ccn4)cc3c2)n1 [Compound 1137, 2-[6-[5-(6-methyl-2-pyridyl)-1H-imidazol-4-yl]-3-quinolyl]pyridine-4-carboxylic acid]	0.0398 to 0.316	1580 to 10000
Cc1cccc(-c2[nH]cnc2-c2ccc3ncc(-c4ncc(C(=O)O)cn4)cc3c2)n1 [Compound 1140, 2-[6-[5-(6-methyl-2-pyridyl)-1H-imidazol-4-yl]-3-quinolyl]pyrimidine-5-carboxylic acid]	0.0398 to 0.316	200 to 1260
Cc1cccc(-c2[nH]cnc2-c2ccc3ncc(-c4cnc(C(=O)O)nc4)cc3c2)n1 [Compound 1142, 5-[6-[5-(6-methyl-2-pyridyl)-1H-imidazol-4-yl]-3-quinolyl]pyrimidine-2-carboxylic acid]	0.398 to 3.16	1580 to 10000
Cc1cccc(-c2[nH]cnc2-c2ccc3ncc(C4=CCN(C(=O)C5CCCNC5)CC4)cc3c2)n1 (centres unmarked) [Compound 1150, [4-[6-[5-(6-methyl-2-pyridyl)-1H-imidazol-4-yl]-3-quinolyl]-3,6-dihydro-2H-pyridin-1-yl]-(3-piperidyl)methanone]	0.0398 to 0.316	25.1 to 158
Cc1cccc(-c2[nH]cnc2-c2ccc3ncc(-c4ccc5c(c4)CC[C@H]5N)cc3c2)n1 [Compound 1154, (1R)-5-[6-[5-(6-methyl-2-pyridyl)-1H-imidazol-4-yl]-3-quinolyl]indan-1-amine]	< 0.0316	< 20
Cc1cccc(-c2[nH]ncc2-c2ccc3nccc(C(=O)O[C@H]4CC[C@@](C)(N)CC4)c3c2)n1 [Compound 1155, (4-amino-4-methyl-cyclohexyl) 6-[5-(6-methyl-2-pyridyl)-1H-pyrazol-4-yl]quinoline-4-carboxylate]	3.98 to 31.6	200 to 1260

Second part, led by results:

Ki [1] [nM]	SMILES	IC50 [2] [nM]
0.0398 to 0.316	Cc1cccc(-c2[nH]cnc2-c2ccc3ncc(-c4cc(C(=O)OCCN5CCNCC5)ccn4)cc3c2)n1 [Compound 1123, 2-piperazin-1-ylethyl 2-[6-[5-(6-methyl-2-pyridyl)-1H-imidazol-4-yl]-3-quinolyl]pyridine-4-carboxylate]	25.1 to 158
< 0.0316	Cc1cccc(-c2[nH]cnc2-c2ccc3ncc(-c4ncc(C(=O)OCCN5CCNCC5)cn4)cc3c2)n1 [Compound 1125, 2-piperazin-1-ylethyl 2-[6-[5-(6-methyl-2-pyridyl)-1H-imidazol-4-yl]-3-quinolyl]pyrimidine-5-carboxylate]	25.1 to 158
0.0398 to 0.316	Cc1cccc(-c2[nH]cnc2-c2ccc3ncc(-c4cnc(C(=O)OC5CCNCC5)nc4)cc3c2)n1 [Compound 1131, 4-piperidyl 5-[6-[5-(6-methyl-2-pyridyl)-1H-imidazol-4-yl]-3-quinolyl]pyrimidine-2-carboxylate]	200 to 1260
0.0398 to 0.316	Cc1cccc(-c2[nH]cnc2-c2ccc3ncc(C(=O)OCCCC4CCNCC4)cc3c2)n1 [Compound 1132, 3-(4-piperidyl)propyl 6-[5-(6-methyl-2-pyridyl)-1H-imidazol-4-yl]quinoline-3-carboxylate]	25.1 to 158
0.0398 to 0.316	Cc1cccc(-c2[nH]cnc2-c2ccc3ncc(-c4ccnc(C(=O)OC5CNC5)c4)cc3c2)n1 [Compound 1133, azetidin-3-yl 4-[6-[5-(6-methyl-2-pyridyl)-1H-imidazol-4-yl]-3-quinolyl]pyridine-2-carboxylate]	200 to 1260
0.398 to 3.16	Cc1cccc(-c2[nH]cnc2-c2ccc3ncc(-c4cnc(C(=O)OCCN5CCNCC5)nc4)cc3c2)n1 [Compound 1138, 2-piperazin-1-ylethyl 5-[6-[5-(6-methyl-2-pyridyl)-1H-imidazol-4-yl]-3-quinolyl]pyrimidine-2-carboxylate]	200 to 1260
< 0.0316	Cc1cccc(-c2[nH]cnc2-c2ccc3ncc(-c4cc(C(=O)OC5CCNCC5)cs4)cc3c2)n1 [Compound 1139, 4-piperidyl 5-[6-[5-(6-methyl-2-pyridyl)-1H-imidazol-4-yl]-3-quinolyl]thiophene-3-carboxylate]	25.1 to 158
0.0398 to 0.316	Cc1cccc(-c2[nH]cnc2-c2ccc3ncc(-c4cc(C(=O)OCCN5CCNCC5)cs4)cc3c2)n1 [Compound 1141, 2-piperazin-1-ylethyl 5-[6-[5-(6-methyl-2-pyridyl)-1H-imidazol-4-yl]-3-quinolyl]thiophene-3-carboxylate]	25.1 to 158
0.0398 to 0.316	Cc1cccc(-c2[nH]cnc2-c2ccc3ncc(-c4ncc(C(=O)OCC5CNC5)cn4)cc3c2)n1 [Compound 1144, azetidin-3-ylmethyl 2-[6-[5-(6-methyl-2-pyridyl)-1H-imidazol-4-yl]-3-quinolyl]pyrimidine-5-carboxylate]	25.1 to 158
0.0398 to 0.316	Cc1cccc(-c2[nH]cnc2-c2ccc3ncc(-c4nc(C(=O)OCCN5CCNCC5)cs4)cc3c2)n1 [Compound 1145, 2-piperazin-1-ylethyl 2-[6-[5-(6-methyl-2-pyridyl)-1H-imidazol-4-yl]-3-quinolyl]thiazole-4-carboxylate]	25.1 to 158
< 0.0316	Cc1cccc(-c2[nH]cnc2-c2ccc3ncc(-c4csc(C(=O)OC5CCNCC5)n4)cc3c2)n1 [Compound 1146, 4-piperidyl 4-[6-[5-(6-methyl-2-pyridyl)-1H-imidazol-4-yl]-3-quinolyl]thiazole-2-carboxylate]	25.1 to 158
0.0398 to 0.316	Cc1cccc(-c2[nH]cnc2-c2ccc3ncc(-c4csc(C(=O)OCC5CNC5)n4)cc3c2)n1 [Compound 1148, azetidin-3-ylmethyl 4-[6-[5-(6-methyl-2-pyridyl)-1H-imidazol-4-yl]-3-quinolyl]thiazole-2-carboxylate]	25.1 to 158
0.398 to 3.16	Cc1cccc(-c2[nH]cnc2-c2ccc3ncc(C(=O)O[C@@H]4CCNC4)cc3c2)n1 [Compound 1149, [(3R)-pyrrolidin-3-yl] 6-[5-(6-methyl-2-pyridyl)-1H-imidazol-4-yl]quinoline-3-carboxylate]	200 to 1260
0.0398 to 0.316	Cc1cccc(-c2[nH]cnc2-c2ccc3ncc(-c4cccc(C(=O)OCCN5CCNCC5)n4)cc3c2)n1 [Compound 1151, 2-piperazin-1-ylethyl 6-[6-[5-(6-methyl-2-pyridyl)-1H-imidazol-4-yl]-3-quinolyl]pyridine-2-carboxylate]	200 to 1260
< 0.0316	Cc1cccc(-c2[nH]cnc2-c2ccc3ncc(-c4csc(C(=O)O)n4)cc3c2)n1 [Compound 1152, 4-[6-[5-(6-methyl-2-pyridyl)-1H-imidazol-4-yl]-3-quinolyl]thiazole-2-carboxylic acid]	< 20
0.0398 to 0.316	Cc1cccc(-c2[nH]cnc2-c2ccc3ncc(C(=O)OCCC4CCNC4)cc3c2)n1 (centres unmarked) [Compound 1153, 2-pyrrolidin-3-ylethyl 6-[5-(6-methyl-2-pyridyl)-1H-imidazol-4-yl]quinoline-3-carboxylate]	25.1 to 158
0.0398 to 0.316	Cc1cccc(-c2[nH]cnc2-c2ccc3ncc(-c4cc(C(=O)OCC5CNC5)ccn4)cc3c2)n1 [Compound 1157, azetidin-3-ylmethyl 2-[6-[5-(6-methyl-2-pyridyl)-1H-imidazol-4-yl]-3-quinolyl]pyridine-4-carboxylate]	25.1 to 158
